Results from paper PMC7970697, “Inhibition and Induction by Poziotinib of Different Rat Cytochrome P450 Enzymes In Vivo and in an In Vitro Cocktail Method” (Frontiers in Pharmacology, 2021).
Each block holds one compound with its values, some of them ahead of it.

Experiments:
CYP2D6 = details: cited from earlier work
cyp2b1 = system: cyp2b1; parameters: method as in Ma et al., 2015; details: in rats; ref Ma et al., 2015; cited from earlier work
CYP2C9 = details: 2019, cited from earlier work
[1] = system: cytochrome P450 (CYP) enzymes; parameters: method as in Dungo et al., 2013; details: ref Dungo et al., 2013; cited from earlier work
in vivo = details: for CL/F: CLz/F; for CL/F / Cmax / Vd/F: n = 6; for Vd/F: Vz/F
Protocol: Samples were analyzed by a UPLC-MS/MS system equipped with a triple quadrupole mass spectrometer (Waters Corp., Milford, MA, United States) and Acquity UPLC BEH C18 column (1.7 μm, 2.1 × 50 mm) at 40°C. The mobile phase consisted of acetonitrile (A) and 0.1% formic acid (B) with a linear gradient elution at 0.4 ml/min for 3 min.
Twelve male Sprague-Dawley rats (230 ± 20 g) were randomly divided into treated and control groups, with 6 in each group. […] The supernatant was mixed with 200 μL of acetonitrile and 20 μL of 0.5 μg/ml diazepam (IS), vortexed for 30 s, centrifuged at 13,000 rpm for 5 min, and the supernatant was injected into the UPLC-MS/MS system for analysis.
Pharmacokinetic parameters were calculated using DAS software (Version 3.2.8). SPSS software (version 16.0; SPSS Inc., Chicago, IL, United States) was used to analyze the significance of differences between the main pharmacokinetic parameters. p < 0.05 was considered statistically significant. GraphPad (version 8.0; GraphPad Software Inc., San Diego, CA, United States) was used to calculate IC50 and plot the plasma concentration-time curves and inhibition plots (type of inhibition, time- and concentration-dependence).

[2] = male, Sprague-Dawley, rat, in vivo, po, 10 mg/kg
[3] = male, Sprague-Dawley, rat, plasma, po, 10 mg/kg, Control group: oral probe cocktail only (10 mg/kg; tolbutamide 1 mg/kg), rats
[4] = male, Sprague-Dawley, rat, plasma, po, 10 mg/kg, Treated group: oral probe cocktail (10 mg/kg; tolbutamide 1 mg/kg) after 7 days oral poziotinib 5 mg/kg, rats
[5] = rats, poziotinib 5 mg/kg 7 days vs probes only
[6] = rats, poziotinib 5 mg/kg 7 days vs probes only (Discussion)

SMILES: COc1cc2ncnc(Nc3ccc(F)c(Cl)c3)c2cc1NC(=O)/C=C/CN1CCCCC1 [dacomitinib]
- effect on CY2D6 (CYP2D6; ref Shirley, 2018): potent inhibitor

SMILES: C#Cc1cccc(Nc2ncnc3cc(OCCOC)c(OCCOC)cc23)c1 [Erlotinib]
- effect on cyp2b1 activity (cyp2b1): may inhibit
- effect on metabolism of warfarin, a CYP2C9 substrate (CYP2C9; in human, ref Hiraide et al.): inhibit warfarin metabolism

SMILES: CN(C)C/C=C/C(=O)Nc1cc2c(Nc3ccc(F)c(Cl)c3)ncnc2cc1O[C@H]1CCOC1 [Afatinib]
- inhibition or induction of CYP enzymes [1]: no inhibition or induction

- AUC(0-t) (in vivo; [2]): 405 ± 87.3 ng·h/mL
- AUC(0–∞) (in vivo; [2]): 421.07 ± 94.21 ng·h/mL
- MRT(0–t) (in vivo; [2]): 2.37 ± 0.53 h
- MRT(0–∞) (in vivo; [2]): 2.87 ± 1.15 h
- Tmax (in vivo; [2]): 0.46 ± 0.29 h
- t1/2z (in vivo; [2]): 2.51 ± 1.34 h
- AUC(0-inf) (in vivo; male, Sprague-Dawley, rat, in vivo, po, 10 mg/kg, AUC(0–∞)): 613 ± 130 ng·h/mL
- MRT last (in vivo; male, Sprague-Dawley, rat, in vivo, po, 10 mg/kg, MRT(0–t)): 3.33 ± 0.84 h
- MRT inf (in vivo; male, Sprague-Dawley, rat, in vivo, po, 10 mg/kg, MRT(0–∞)): 4.34 ± 1.58 h
- Tmax (in vivo; male, Sprague-Dawley, rat, in vivo, po, 10 mg/kg, Tmax): 0.75 ± 0.27 h
- half-life (in vivo; male, Sprague-Dawley, rat, in vivo, po, 10 mg/kg, t1/2z): 3.35 ± 1.21 h
- AUC(0-t) (in vivo; male, Sprague-Dawley, rat, plasma, po, 10 mg/kg): 565 ± 92.5 ng·h/mL
- CL/F (in vivo; [3]): 412 mL/min/kg
- CL/F (in vivo; [4]): 281 mL/min/kg
- Cmax (in vivo; [3]): 170 ± 60.1 ng/mL
- Cmax (in vivo; [4]): 173 ± 60.8 ng/mL
- Vd/F (in vivo; [3]): 85.4 ± 37.7 L/kg
- Vd/F (in vivo; [4]): 81.8 ± 38.3 L/kg
- AUC(0–t) fold higher in treated than control group (in vivo; [5]): 1.39 fold
- AUC(0–∞) fold higher in treated than control group (in vivo; [5]): 1.46 fold
- CLz/F fold lower in treated than control group (in vivo; [5]): 1.47 fold
- MRT(0–t) fold higher in treated than control group (in vivo; [5]): 1.41 fold
- Tmax fold higher in treated than control group (in vivo; [5]): 1.63 fold
- Vz/F fold lower in treated than control group (in vivo; [5]): 1.04 fold
- AUC(0–t) of treated group as fold of control group value (in vivo; [6]): 1.40 fold
- CLz/F of treated group as fold of control group value (in vivo; [6]): 0.68 fold
SMILES: CC(NC(C)(C)C)C(=O)c1cccc(Cl)c1 (centres unmarked) [Bupropion]

SMILES: COc1cc2ncnc(Nc3ccc(F)c(Cl)c3)c2cc1OCCCN1CCOCC1 [Gefitinib]
- effect on CYP2C9 (CYP2C9; ref Prommer, 2004, Hiraide et al.): inhibit
- effect on CYP2D6 (CYP2D6; ref Prommer, 2004, Hiraide et al., 2019): inhibit
